Among the data in patent EP1054892B1, “AZOLE PEPTIDOMIMETICS AS THROMBIN RECEPTOR ANTAGONISTS” (Ortho-McNeil Pharmaceutical, Inc., priority 1998, dated 1999) are IC50 values, retold here.

The structures appear in SMILES notation. Numbered stars: 1 amine (or outer) side, 2 acyl side, 3 side chain; on linkers, the order of the positions; unused ones are H or OH. Square brackets hold non-standard residues; d marks the D form. Peptide text beside a SMILES is read from it. Phe(4-F)ψ(2,4-Thz) = O=C(c1csc([C@H](Cc2ccc(F)cc2)N[*:1])n1)[*:2]; hArg = N=C(N)NCCCC[C@H](N)C(=O)O; Cha = N[C@@H](CC1CCCCC1)C(=O)O; Sar = CNCC(=O)O

Experiment [1] relates to gel-filtered platelets. Kind of experiment: In vitro inhibition of thrombin-induced gel-filtered platelet aggregation. The format is cell-based. The settings on record: agonist thrombin, gel-filtered human platelets, read-out: Platelet Aggregation** IC50 Thr*. The protocol:
IN VITRO INHIBITION OF THROMBIN-INDUCED GEL-FILTERED PLATELET AGGREGATION ASSAY.
The percentage of platelet aggregation is calculated as an increase in light transmission of compound-treated platelet concentrate vs. control-treated platelet concentrate. Human blood is obtained from drug free, normal donors in tubes containing 0.13 M sodium citrate. Platelet rich plasma (PRP) is collected by centrifugation of whole blood at 200 x g for 10 min at 25°C. The PRP (5 mL) is gel filtered through Sepharose 2B (bed volume 50 mL), and the platelet count is adjusted to 2x10^7 platelets per sample. The following constituents are added to a siliconized cuvette: concentrated platelet filtrate and Tyrode's buffer (0.14 M NaCI, 0.0027 M KCI, 0.012 M NaHCO3, 0.76 mM Na2HPO4, 0.0055 M glucose, 2 mg/mL BSA and 5.0 mM HEPES @ pH 7.4) in an amount equal to 350 µl, 50 µl of 20 mM calcium and 50 µl of the test compound. Aggregation is monitored in a BIODATA aggregometer for the 3 min following the addition of agonist (thrombin 50 µl of 1 unit/mL).
The table contains IC50 values (µM) of the compounds in a thrombin receptor binding assay, and IC50 values (µM) against platelet aggregation stimulated by two agonists, thrombin or SFLLRN-NH2 (TRAP).
* µM ** Thrombin-induced aggregation of gel-filtered platelets in µM.

Experiment [2] deals with gel-filtered platelets. Kind of experiment: In vitro inhibition of SFLLRN-NH2 (TRAP)-stimulated gel-filtered platelet aggregation. The format is cell-based. The settings on record: agonist SFLLRN-NH2 (TRAP), gel-filtered human platelets.
The target in experiment [3] is T1, thrombin receptor (Homo sapiens, UniProt P25116).
T1 construct: CHRF membranes (Jones, Biochim. Biophys. Acta 1992, 1136, 272) are thawed from -70°C; endogenous in cells; host or cells: CHRF cell membranes
T1 sequence (P25116 22-425): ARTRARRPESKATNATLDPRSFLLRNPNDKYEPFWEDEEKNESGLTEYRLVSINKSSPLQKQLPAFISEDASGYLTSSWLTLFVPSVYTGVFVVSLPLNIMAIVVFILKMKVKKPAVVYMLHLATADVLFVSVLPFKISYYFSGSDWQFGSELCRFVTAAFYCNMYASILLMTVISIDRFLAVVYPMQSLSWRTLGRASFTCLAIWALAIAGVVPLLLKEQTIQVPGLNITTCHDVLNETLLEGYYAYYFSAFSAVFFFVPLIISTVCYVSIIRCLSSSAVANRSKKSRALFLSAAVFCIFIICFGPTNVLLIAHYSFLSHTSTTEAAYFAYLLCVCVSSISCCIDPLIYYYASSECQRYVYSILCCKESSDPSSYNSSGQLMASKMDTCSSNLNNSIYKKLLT
Kind of experiment: In vitro thrombin receptor binding assay (CHRF membranes, tritiated 721-40). The settings on record: displacement of tritiated 721-40 (Ser-pFPhe-Har-Leu-Har-Lys-Tyr-NH2), read-out: Thr Receptor Binding IC50*. How it is done:
IN VITRO THROMBIN RECEPTOR BINDING ASSAY.
CHRF membranes (Jones, Biochim. Biophys. Acta 1992, 1136, 272) are thawed from -70°C, centrifuged at maximum speed for 5 min, washed twice with binding buffer (50 mM HEPES containing 5 mM MgCl2 and 0.1% BSA), and re-suspended in binding buffer ([…]). 100 µl of membranes are added to the 24-Wallac plates and delivered to the Tomtech apparatus. In a typical experiment, 6 µl of samples (from a 125 µg/mL intermediary plate, 20%DMSO) and 44 µl buffer are delivered to the plates (final conc. of compounds is 3.7 µg/mL, 0.6% DMSO). Similarly, 6 µl 20%DMSO and 44 µl buffer are delivered to both column 1 (NSB) and column 12 (TB). 10 µl Ser-pFPhe-Har-Leu-Har-Lys-Tyr-NH2 (721-40; 500 µM in deionized water) is added to column 1.50 µl tritiated 721-40 (specific activity 46 Ci/mmol) is added to all the wells. The plates are mixed well for 20 seconds, incubated for 30 min, and then harvested with 10 mM HEPES/138 mM NaCl using the Skatron harvester. The filters (GF/C Brandel FPXLR 296) are presoaked 3 h in 0.5% polyethylenimine in HEPES/0.1 M N-acetylglucosamine) are set in saran wrap and dried for 3 min in the microwave, and placed in sample bags (Wallac 1450-432). 4.5 mL scintillation fluid (Wallac, Betaplate Scint 1205-440) is added. The bags are sealed, placed in filter cassettes (Wallac 1450-104), and analyzed on the microbeta counter. […]

Regarding `N=C(N)NCCC[C@H](NC(=O)[C@H](CC1CCCCC1)NC(=O)c1coc([C@H](Cc2ccc(F)cc2)NC(=O)CCN)n1)C(=O)NCc1ccccc1` [Compound 2, 2-[1(S)-β-Alanineamido-2-(4-fluorophenyl)ethyl]oxazole-4-carboxycyclohexylalanyl-arginine benzylamide], the IC50 (commonly the concentration that inhibits the measured activity by half) is 10 µM in experiment [1] (Platelet) and 7 µM in experiment [2] (Platelet).
The matching figures for `CNCC(=O)N[C@@H](Cc1ccc(F)cc1)c1nc(C(=O)N[C@@H](CC2CCCCC2)C(=O)N[C@@H](CCCNC(=N)N)C(=O)NCc2ccccc2)co1` [Compound 1, 2-[1(S)-Sarcosineamido-2-(4-fluorophenyl)ethyl]oxazole-4-carboxy-cyclohexylalanyl-arginine benzylamide]: 25 µM and 10 µM.
The like results for `CC(=O)N[C@@H](Cc1ccc(F)cc1)c1nc(C(=O)N[C@@H](CC2CCCCC2)C(=O)N[C@@H](CCCNC(=N)N)C(=O)NCc2ccccc2)c(C)o1` [Compound 9, 2-[1(S)-Acetamido-2-(4-fluorophenyl)ethyl]-5-methyloxazole-4-carboxy-cyclohexylalanyl-arginine benzylamide] were, in that order, 24 µM and 11 µM.
Turning to `Cc1oc([C@H](Cc2ccc(F)cc2)N(C)C)nc1C(=O)N[C@@H](CC1CCCCC1)C(=O)N[C@@H](CCCNC(=N)N)C(=O)NCc1ccccc1` [Compound 10, 2-[1(S)-N,N-Dimethyl-2-(4-fluorophenyl)ethyl]-5-methyloxazole-4-carboxy-cyclohexylalanyl-arginine benzylamide], the IC50 in experiment [1] stood at 11 µM; in experiment [2], 17 µM.
With `CNCC(=O)N[C@@H](Cc1ccc(F)cc1)c1nc(C(=O)N[C@@H](CC2CCCCC2)C(=O)N[C@@H](CCCNC(=N)N)C(=O)NCc2ccccc2)c(C)o1` [Compound 7, 2-[1(S)-Sarcosineamido-2-(4-fluorophenyl)ethyl]-5-methyloxazole-4-carboxy-cyclohexylalanyl-arginine benzylamide], the IC50 in experiment [1] (Platelet) is 19 µM; in experiment [2] (Platelet), 22 µM.
Turning to `CNCC(=O)N[C@@H](Cc1ccc(F)cc1)c1nc(C(=O)N[C@@H](CC2CCCCC2)C(=O)N[C@@H](CCCCNC(=N)N)C(=O)N[C@@H](Cc2ccccc2)C(N)=O)cs1` [Compound 4] (H-[Sar][Phe(4-F)ψ(2,4-Thz)][Cha][hArg]F-NH2), the IC50 is 5 µM in experiment [3] and 45 µM in experiment [1] (Platelet).
In the case of `Cc1oc(C(Cc2ccc(F)cc2)NC(=O)C(N)Cc2cn(Cc3ccccc3)cn2)nc1C(=O)NC(CC1CCCCC1)C(=O)NC(CCCNC(=N)N)C(=O)NCc1ccccc1` [Compound 8, 2-[1(S)-N(tau)-Benzyl-histidineamido-2-(4-fluorophenyl)ethyl]-5-methyloxazole-4-carboxy-cyclohexylalanyl-arginine benzylamide], the IC50 stood at 13 µM in experiment [1] (Platelet) and 5 µM in experiment [2] (Platelet).
On to `CC[C@H](C)[C@H](N)C(=O)N[C@@H](Cc1ccc(F)cc1)c1nc(C(=O)N[C@@H](CC2CCCCC2)C(=O)N[C@@H](CCCNC(=N)N)C(=O)N[C@@H](Cc2ccccc2)C(N)=O)cs1` [Compound 5] (H-I[Phe(4-F)ψ(2,4-Thz)][Cha]RF-NH2), for which the IC50 was 43 µM in experiment [1] (Platelet) and 9 µM in experiment [2] (Platelet).
The matching figures for `CNCC(=O)N[C@@H](Cc1ccc(F)cc1)c1nc(C(=O)N[C@@H](CCCCN)C(=O)N[C@@H](CCCNC(=N)N)C(=O)NCCc2ccccc2)cs1` [Compound 6, 2-[1(S)-Sarcosineamido-2-(4-fluorophenyl)ethyl]thiazole-4-carboxy-lysyl-arginine phenethylamide]: 26 µM and 4 µM.
The like results for `CNCC(=O)N[C@@H](Cc1ccc(F)cc1)c1nc(C(=O)N[C@@H](CC2CCCCC2)C(=O)N[C@@H](CCCNC(=N)N)C(=O)NCCc2ccccc2)cs1` [Compound 3, 2-[1(S)-Sarcosineamido-2-(4-fluorophenyl)ethyl]thiazole-4-carboxycyclohexylalanyl-arginine phenethylamide] were, in that order, 12 µM and 0.6 µM.
